Laboratory results from patent publication US9072746B2, “Method for enhancing learning and memory impaired by neurodegenerative disorders and compounds and compositions for effecting the same” (The Board of Trustees of the Leland Stanford Junior …, priority 2010, dated 2015).
Entries after “also recorded” stand apart in the source; their conditions may differ.

Key:
Type in all cases: in vivo
[1] = Plasma and brain sample analysis after subcutaneous injection (FIG. 10C, D); conditions: after subcutaneous injection of 3 mg/kg
Experimental: FIG. 10 Xamoterol improves the memory retrieval dose-dependently by interaction with the adrenergic receptors in central nervous system. […] In all experiments xamoterol 3 mg/kg, atenolol 3 mg/kg, and betaxolol 1 mg/kg were injected subcutaneously. […] Results are shown as mean+SEM (ns=not significant, *=p<0.05, and **=p<0.01).

male 2N mice [2] = assay: Novel object recognition; conditions: xamoterol 3 mg/kg s.c.
Experimental: (§1) In this part of the study, activity chamber and three cognitive tests, including T-maze spontaneous alternation, contextual fear conditioning (CFC), and novel object recognition were performed. In T-maze spontaneous alternation and contextual fear conditioning, both Ts65Dn and 2N male mice were divided into three treatment groups including normal saline (Vehicle), xamoterol, and betaxolol plus xamoterol groups. In the novel object recognition test, both Ts65Dn and 2N male mice were divided into two treatment groups, normal saline and xamoterol. The T-maze was performed exactly as previously described. […] On the first day (training day), animals were placed in the fear conditioning chamber, and after a 3-minute pre-shock period, they were exposed to 5 shocks (2 s, 0.5 mA,) with inter-trial intervals of 80 seconds and no tone. On the second day, the animals first received xamoterol, xamoterol plus betaxolol, or saline injection, and one hour later, they were placed in the same chamber for 5 minutes. Similar to the previous description of fear conditioning, freezing was defined as the complete lack of motion for a minimum of o.75 second. The Novel Object Recognition task is conducted in an open field arena (40 cm×40 cm). Mice were habituated in the testing room for 1 hour followed by 5 minutes habituation inside the arena without any objects. On 4th day animals were introduced 3 times to arena with 3 identical subjects for 10 minutes with 3 minutes inter trial intervals. On 5th day (24 hours after trainings) one of the objects replaced by a novel one and the time sniffing of each object were used for analysis. For testing the role of β1 adrenergic system, xamoterol and betaxolol (Tocris Bioscience, Ellisville, Mo.) were injected subcutaneously using 10 ml/kg normal saline as vehicle. Xamoterol, (3 mg/kg) was given one hour before testing and betaxolol (1 mg/kg) was given 30 minutes before testing.

male Ts65Dn mice [3] = assay: Novel object recognition; conditions: xamoterol 3 mg/kg s.c.
Experimental: as §1

male 2N mice [4] = assay: Exploratory activity in novel environment (Activity Chamber)
Experimental: as §1, with “The Activity Chamber (Med associates Inc., St. Albans, Vt.) was used for the evaluation of general activity, gross locomotor activity, and exploratory behavior. Assessment took place in a square arena, 43.2×43.2 cm, with 3 planes of infrared detectors within a specially designed sound attenuating chamber, 66×55.9×55.9 cm, under dim light. The animal was placed in the center of the testing arena and allowed to move freely for 30 minutes while being tracked by an automated tracking system. Distance moved, velocity, resting time, and vertical count (rearing) were recorded. […] In this” for “In this”

male Ts65Dn mice [5] = assay: as above; conditions: for effect on locomotor activity (total ambulatory distance moved): xamoterol 3 mg/kg s.c.
Experimental: as §1, with “The Activity Chamber (Med associates Inc., St. Albans, Vt.) was used for the evaluation of general activity, gross locomotor activity, and exploratory behavior. Assessment took place in a square arena, 43.2×43.2 cm, with 3 planes of infrared detectors within a specially designed sound attenuating chamber, 66×55.9×55.9 cm, under dim light. The animal was placed in the center of the testing arena and allowed to move freely for 30 minutes while being tracked by an automated tracking system. Distance moved, velocity, resting time, and vertical count (rearing) were recorded. […] In this” for “In this”

C57Bl/6J mice = assay: Contextual fear conditioning memory retrieval (FIG. 10A, B); conditions: betaxolol 1 mg/kg s.c.
Experimental: In all experiments xamoterol 3 mg/kg, atenolol 3 mg/kg, and betaxolol 1 mg/kg were injected subcutaneously. […] Results are shown as mean+SEM (ns=not significant, *=p<0.05, and **=p<0.01).

[6] = xamoterol 3 mg/kg s.c. one hour before testing

In the case of `O=C(NCCNCC(O)COc1ccc(O)cc1)N1CCOCC1` (stereo not shown) [xamoterol], the “access to blood and brain (plasma and brain samples)” value [1] is reported as “can get access to blood and brain”, the “effect on novel object recognition performance” value (male 2N mice [2]; 2N mice) is reported as “had no effect” and the “% of Total Investigation in Novel Object Recognition, Mean ± SEM” value (male 2N mice [2]; male 2N mice) is reported as 78.6 ± 2.6%. The “% of Total Investigation in Novel Object Recognition, Mean ± SEM” value (male Ts65Dn mice [3]) was 73.6 ± 4.2%, the “effect on novel object recognition deficit” value (male Ts65Dn mice [3]) was “completely rescue; also recorded: corrected” and the “effect on novel object recognition deficit” value (male Ts65Dn mice [3]; listed as Xamoterol) was “could correct”. The “effect on locomotor activity (total ambulatory distance moved)” value (“effect on locomotor activity” for short) (male 2N mice [4]; xamoterol 3 mg/kg s.c.) was “no significant effect”, the “Total Ambulatory Distance Moved in Activity Chamber (cm), Mean ± SEM” value (male 2N mice [4]; [6]) was 2554 ± 192 cm and the “effect on locomotor activity” value (male Ts65Dn mice [5]) was “no significant effect”. The “Total Ambulatory Distance Moved in Activity Chamber (cm), Mean ± SEM” value (male Ts65Dn mice [5]; [6]) was 3878 ± 765 cm, the “effect on locomotor activity” value (male Ts65Dn mice [5]; listed as Xamoterol) was “did not show a significant effect” and the “effect on locomotor activity” value (male Ts65Dn mice [5]; listed as Xamoterole) was “Xamoterole has no effect on activity”. For the same compound, the “reversal of betaxolol-induced impairment of memory retrieval” value (C57Bl/6J mice) was “reverse the impairment dose-dependently”.
